Values quoted from earlier work in PMC5599218 (Biomaterials, 2017).
“And” between values parts separate entries of the source, which are not always exact repeats. Identical values can stand only once.

Columns and labels:
[1] = women using DPV vaginal rings for 7d; ref [54]
[2] = DPV vaginal films, after 6h exposure, estimated; ref [59]
[3] = tested on: HIV-1; details: ref [52]
[4] = oral daily dosing, 12h after the last dose; ref [52]

Mean vaginal fluid concentrations of DPV [1] [µg/mL]	DPV provided to human cervical explant tissues [2]	Structure (SMILES)	in vitro IC50 [3]	ETR concentration in cervicovaginal fluid (CVF) [4] [µg/mL]
0.7 to 7.1	152–334 nM and 0.05–0.11 μg/mL	Cc1cc(C)c(Nc2ccnc(Nc3ccc(C#N)cc3)n2)c(C)c1 [DPV, Dapivirine]		
		Cc1cc(C#N)cc(C)c1Oc1nc(Nc2ccc(C#N)cc2)nc(N)c1Br [ETR, etravirine]	~ 2 ng/mL	0.857
